According to patent US11137400B2, “Methods for predicting and determining responsiveness to activators of JNK kinase” (UNIVERSITY OF PITTSBURGH-OF THE COMMONWEALTH SYSTEM OF …, priority 2017, dated 2021):
Entries after “also recorded” stand apart in the source; their conditions may differ. Where a SMILES comes first, the peptide text is derived from it. The star is where a group is joined. Cbz = O=C(OCc1ccccc1)*

Columns and labels:
hXBP1s [1] = assay: ER stress time course in HEK293T cells, Western blot of hXBP1s; format: cell-based, human
Method: (§1) hXBP1s plays an essential role in regulating BMSC support of MM cell growth. […] To test this hypothesis, the time-dependent protein expression patterns of hXBP1s and phosphorylated JNKs (p-JNKs) was determined in cells that were challenged with either a persistent or transient ER stress, induced by either thapsigargin (Thg) or dithiothrietol (DTT), respectively. […] The protein level of hXBP1s started to decline at 6-hrs, and the reduction continued till 12-hr, the end of Thg treatment. In contrast, Thg induced the phosphorylation of JNKs from 6 to 12-hrs of Thg treatment. This activation of JNKs coincided with the decrease in hXBP1s protein levels within the same time frame of Thg treatment (FIG. 1A).
DTT is a reducing agent that disrupts oxidative protein folding in the ER. Since the effects of DTT are rapidly reversible, and DTT can be readily removed by washing, it was used to mimic intermittent ER stress on cells. HEK293T cells were treated with DTT for 30 minutes, then DTT was washed away, and the cells were harvested at various time points after DTT removal. […] In addition, the cells recovered and further increased hXBP is protein expression at 2- and 5-hr post DTT removal. This process coincided with a drastic reduction in JNKs' phosphorylation (FIG. 1B).
(§2) Total cell lysates were prepared with RIPA buffer containing protease inhibitor cocktail and phosphatase inhibitor cocktails I/II (Sigma-Aldrich). After centrifugation, total cell lysates then were separated by 10% sodium dodecyl sulfate polyacrylamide gel electrophoresis and analyzed by immunoblot analysis as described previously. Signals were detected with ECL reagents (GE Healthcare Life Sciences). Semi-quantification of data was performed using Image J. For immunoprecipitation assay, Cells were washed with ice-cold PBS and lysed with lysis buffer (50 mM Tris-HCl, pH 7.5; 150 mM NaCl, 0.1% (wt/vol) Nondiet P40, 1 mM Ethylenediaminetetraacetic acid (EDTA); […]; protease inhibitor cocktail and phosphatase inhibitor cocktails I/II (Sigma-Aldrich). After overnight incubation with Anti-HA-agarose beads (Roche) or anti-hXBP1s antibody at 4° C. on a rotator, following by addition of Protein G Agarose to the reaction containing anti-hXBP1s antibody for 2 h at 4° C. Immunoprecipitates were washed three times with cold lysis buffer and boiled for 5 min in 2× Laemmli buffer for elution of immunoprecipitated HA-hXBP1s or Flag-hXBP1s complex. Samples were resolved in SDS-PAGE (Bio-Rad) and immunoblotted with corresponding antibody.

p-JNKs = assay: ER stress time course in HEK293T cells, Western blot of phosphorylated JNKs; format: cell-based, human; settings: 30-minute treatment
Method: as §1
DTT is a reducing agent that disrupts oxidative protein folding in the ER. Since the effects of DTT are rapidly reversible, and DTT can be readily removed by washing, it was used to mimic intermittent ER stress on cells. […]
(§3) Total cell lysates were prepared with RIPA buffer containing protease inhibitor cocktail and phosphatase inhibitor cocktails I/II (Sigma-Aldrich). After centrifugation, total cell lysates then were separated by 10% sodium dodecyl sulfate polyacrylamide gel electrophoresis and analyzed by immunoblot analysis as described previously. Signals were detected with ECL reagents (GE Healthcare Life Sciences). […]

hXbp1s mRNA = assay: Real-time PCR of hXbp1s mRNA in FLAG-hXBP1s-overexpressing KM101 cells; format: cell-based, human
Method: Real-time PCR was performed as described previously. B-Actin was used as an internal control.

5-TGM cells = assay: Adhesion of 5-TGM cells to TNFα-treated KM101 cells; format: cell-based, mouse
Method: Human kidney […], human BM stromal cell lines KM101 cells, mouse MM cell line 5-TGM1, human MM cell lines ANBL-6 and MM1.S were cultured as described. Mouse macrophage cell line RAW264.7 were cultured in DMEM supplemented with 10% FBS. Isolation of primary hBMSCs was performed as described. These studies were approved by the University of Pittsburgh institutional review board and by the VA Pittsburgh Healthcare System institutional animal care and use committee. MM cell growth assay, cell adhesion assays, OCL formation assay were performed as described (Xu et al., Blood, 119:4205-4214 (2012)).

FLAG-hXBP1s [2] = assay: Western blot of FLAG-hXBP1s (WT or S288A) in stably overexpressing KM101 cells; format: cell-based, human; settings: for effect of pretreatment on anisomycin-induced repression of FLAG-hXBP1s protein level: then stimulated with anisomycin; for effect on steady-state protein level of hXBP1s S288A mutant: S288A mutant expressing KM101 cells
Method: as §2

[3] = test system: HA-hXBP1s / MYC-β-TrCP binding; assay: Co-immunoprecipitation of HA-hXBP1s with MYC-β-TrCP in HEK293T cells; format: cell-based, human; settings: 10 nM JNKi for 4 hrs (FIG. 2F)
Method: as §2

IL-6 = assay: TNFα-induced IL-6 production in KM101 cells, ELISA; format: cell-based, human
Method: To determine hIL-6 secretion by BMSCs, supernatants from cell cultures were collected and analyzed with hIL-6 ELISA read-set go kits (eBioscience) according to the manufacturer's instructions, the mice's serum concentration of IgG2b, RANKL, IL-6 and CTX-I were measured with their respectively ELISA kit (Quidel, Roche, Roche and MyBioSource).

VCAM-1 = assay: TNFα-induced VCAM-1 protein expression in KM101 cells, Western blot; format: cell-based, human; settings: for TNFα-induced VCAM-1 protein expression: KM101 cells expressing (WT) hXBP1s
Method: as §2

FLAG-hXBP1s [4] = assay: Western blot of FLAG-hXBP1s in HEK293T cells co-transfected with MYC-β-TrCP and MKK7-JNKs; format: cell-based, human; settings: pretreatment of HEK293T cells
Excerpt: Since JNKs repress hXBP1s protein expression, it was hypothesized that JNKs promote its β-TrCP binding and consequent degradation via the UPS-26S proteasome machinery. […] To determine the functional consequence of JNKs' potentiation of the physical interactions between MYC-β-TrCP and HA-hXBP1s. FLAG-XBP1s was overexpressed with a small/moderate amount of MYC-β-TrCP either in the presence or absence of MKK7-JNKs. […] Further, JNKs and MYC-β-TrCP's inhibition of FLAG-hXBP1s was abolished by pretreatment of cells with MG 132 (FIG. 2G). Consistent with the latter observation. […] Taking these observations together, it was concluded that JNKs promote the physical interactions between hXBP1s and D-TrCP, leading to the ubiquitination and consequent protein degradation of hXBP1s that results in a decrease in the steady-state levels of hXBP1s.
as §3

hXBP1s [5] = assay: Western blot of steady-state hXBP1s protein (endogenous and overexpressed) in HEK293T and KM101 cells; format: cell-based, human
Method: as §2

Compound: O[C@H](CS)[C@H](O)CS (racemic) [DTT, dithiothreitol]
- basal hXBP1s protein expression (hXBP1s [1]; 30-minute treatment): quickly diminished
- phosphorylation of JNKs (p-JNKs): strongly induced

Compound: CCOc1nc(NC(=O)Cc2cc(OC)ccc2OC)cc(N)c1C#N [JNKi VIII]
- mRNA expression of hXbp1s (hXbp1s mRNA): no effect
- TNFα-induced stromal support of adhesion of 5-TGM cells (5-TGM cells): potentiated
- steady-state protein level of overexpressed (WT) FLAG-hXBP1s (FLAG-hXBP1s [2]; KM101 cells): dose-dependent up-regulation
- effect of pretreatment on anisomycin-induced repression of FLAG-hXBP1s protein level (FLAG-hXBP1s [2]; KM101 cells): largely prevented
- steady-state protein level of overexpressed (WT) FLAG-hXBP1s (FLAG-hXBP1s [2]; KM101 cells, listed as JNKi): dose-dependently increased
- effect on steady-state protein level of hXBP1s S288A mutant (FLAG-hXBP1s [2]): completely abolished
- basal level binding of HA-hXBP1s with MYC-β-TrCP [3]: abolished
- TNFα-induced stromal production of IL-6 (IL-6): potentiated
- TNFα-induced VCAM-1 protein expression (VCAM-1): potentiated
- ANS inhibition of TNFα-induced VCAM-1 expression in presence of the substance (VCAM-1; KM101 cells, with ANS): compromised

Compound: CC(C)C[C@@H](C=O)NC(=O)[C@H](CC(C)C)NC(=O)[C@H](CC(C)C)NC(=O)OCc1ccccc1 [MG132] (Cbz-Leu-Leu-Leu-aldehyde)
- discrepancy in protein expression of S288A mutant and WT hXBP1s (FLAG-hXBP1s [2]; KM101 cells): abolished
- effect of pretreatment on anisomycin-induced repression of FLAG-hXBP1s protein level (FLAG-hXBP1s [2]; KM101 cells): completely blocked
- JNKs and MYC-β-TrCP's inhibition of FLAG-hXBP1s (FLAG-hXBP1s [4]): abolished
- steady-state level of both endogenous and overexpressed hXBP1s (hXBP1s [5]): promptly and greatly elevated

Compound: O=S(=O)(N=Cc1c(O)ccc2ccccc12)c1cccs1 [STF-083010]
- TNFα-induced stromal support of adhesion of 5-TGM cells (5-TGM cells): repressed
- JNKi's promotion of stromal support to 5-TGM cells' adhesion (5-TGM cells; with JNKi): compromised
- TNFα-induced stromal production of IL-6 (IL-6): repressed
- JNKi's promotion of stromal production of IL-6 (IL-6; with JNKi): compromised
- TNFα-induced VCAM-1 protein expression (VCAM-1): repressed
- JNKi's promotion of TNFα-induced stromal induction of VCAM-1 (VCAM-1; KM101 cells, with JNKi): compromised

Compound: C/C=C(/C)C(=O)O[C@H]1C(C)=C2[C@H]([C@@H]1OC(=O)CCCCCCC)[C@@](C)(OC(C)=O)C[C@H](OC(=O)CCC)[C@@]1(O)[C@H]2OC(=O)[C@@]1(C)O [Thg, thapsigargin]
- time at which endogenous hXBP1s peaked (hXBP1s [1]): 4 h
- time at which up-regulation of endogenous hXBP1s was first detected (hXBP1s [1]): 2 h
- time at which hXBP1s protein level started to decline (hXBP1s [1]; reduction continued till 12-hr): 6 h
- protein expression of endogenous hXBP1s during persistent ER stress (hXBP1s [1]; treatment up to 12-hr): time-dependent up-regulation

Compound: COc1ccc(C[C@H]2NC[C@H](O)[C@H]2OC(C)=O)cc1 [anisomycin]
- mRNA expression of hXbp1s (hXbp1s mRNA): no effect
- steady-state protein level of overexpressed (WT) FLAG-hXBP1s (FLAG-hXBP1s [2]; KM101 cells): drastically decreased; also recorded: greatly reduced
- effect on steady-state protein level of hXBP1s S288A mutant (FLAG-hXBP1s [2]): completely lost its inhibitory effect
- TNFα-induced VCAM-1 protein expression (VCAM-1; listed as ANS): dose-dependently repressed; also recorded: dose-dependently blocked
- inhibitory effect on TNFα-induced VCAM-1 protein expression in S288A mutant cells (VCAM-1; S288A mutant-overexpressing KM101 cells): largely abolished
